Data taken from patent US20130079309A1, “Method Of Treating Acute Lung Injury Using Sphingosine 1 Phosphate Analogs Or Sphingosine 1 Phosphate Receptor Agonists” (The Board of Trustees of the University of Illinois, priority 2010, published 2013).

Tests used:
[1] = tested on: LPS-induced lung injury in C57BL/6 mice; assay: LPS-induced murine lung injury model; details: for capillary leak as total BAL protein, relative to PBS control: 1S 0.1-5.0 mg/kg i.p. single dose 1 h after LPS 2.5 mg/kg i.t., FTY720 0.5 mg/kg, S1P 0.026 mg/kg; for peripheral blood leukocyte and lymphocyte levels relative to PBS controls: 18 h after LPS
Experimental: For experiments performed in intact animals, male C57BL/6 mice (8-10 weeks) were anesthetized with intraperitoneal ketamine and acetylpromazine mixture according to the approved protocol. Escherichia coli LPS solution (2.5 mg/kg) or sterile saline was instilled intratracheally via a 20-gauge catheter. Simultaneously, mice received either FTY720 or analogs (in doses: 0.01, 0.1, 0.5, 1, and 5 mg/kg i.p.) or PBS as vehicle. The animals were allowed to recover for 18 h. BAL and lungs were collected and stored at −70° C. for evaluation of lung injury.
Pure BAL fluids prepared for protein measurement or myeloperoxidase activity (MPO) lung homogenates were used to test albumin concentration. The assay was performed in 96-well plastic plates (Nalge Nunc A/S, Roskilde, Denmark). Plates were coated with mouse albumin (Bethyl Lab, Montgomery, Tex.), washed, and blocked. Aliquots (100-μl) of the sample or standard and 100 μl of goat anti-mouse albumin antibody (horseradish peroxidase-conjugated) (1:50,000) were then added, followed by incubation at 37° C. for 1 h. Finally, the substrate 3,3′,5,5′-tetramethylbenzidine was added for 10 min, and the reaction stopped by adding 100 μl of 2 M H2SO4. The absorbance at 450 nm was read on a kinetic microplate reader (Molecular Devices).
Myeloperoxidase (MPO) was isolated and measured from snap-frozen right lungs as follows (see also Remick et al., 1990, Am J Pathol 136: 49-60). The right lung was homogenized in 1 ml of 50 mM potassium phosphate, pH 6.0, with 0.5% hexadecyltrimethylammonium bromide. The resulting homogenate was sonicated and then centrifuged at 12,000 g for 15 min. The supernatant was mixed 1:30 with assay buffer (100 mM potassium phosphate, pH 6.0, 0.005% H2O2, 0.168 mg/ml o-dianisidine hydrochloride), and absorbance read at 490 nm. MPO units were calculated as the change in absorbance with respect to time.
Peripheral blood was examined by the Missouri University Research Animal Diagnostic Laboratory (Columbia, Mo.) for determination of total blood cell counts and differentials in blood samples.
Values are shown as the mean±S.E. Data were analyzed using a standard Student's t test or one-way analysis of variance, groups were compared by Newman-Keuls test, and significance in all cases was defined at p<0.05.

β-arrestin = details: 1 μM (SEW2871 10 μM; (S)-FTY720-phosphonate 1, 10, 50 μM), 5 h
Experimental: After another 2 h-incubation with fluorescence substrate, the fluorescence intensity (blue and green channels) were detected and the blue/green emission ratio was used as the activation indicator.

[2] = tested on: bleomycin-induced ALI in C57/BL6 mice; assay: Murine model of bleomycin-induced ALI; details: for animals alive by day 12 following bleomycin instillation: bleomycin 1.2 U/kg i.t.; for mice survived to 14 days: bleomycin + compound
Experimental: C57/BL6 mice received bleomycin (1.2 U/kg) or sterile saline administered i.t. (intratracheally) and were then treated with FTY720, (S)-FTY720-phosphonate, (0.1 mg/kg i.p.) or PBS vehicle 3× a week until harvesting. Mice were followed for 14 days to assess mortality rates and multiple indices of lung injury.

[3] = tested on: radiation-induced lung injury (RILI) in C57BL/6 mice; assay: Murine model of RILI: BAL protein, BAL cell counts, BAL cytokines, EBD extravasation, body weight, lung histology; type: in vivo, mouse; details: for lung histology: inflammatory cell infiltration and interstitial edema induced by radiation: 0.1 mg/kg i.p. 2×/wk, 25 Gy; for lung histology: inflammatory cell infiltration and interstitial edema induced by radiation / BAL cell counts vs RILI-challenged controls / BAL protein vs RILI-challenged controls: 6 weeks; for BAL cell counts vs RILI-challenged controls / BAL protein vs RILI-challenged controls: 0.01 or 0.1 mg/kg i.p. 2×/wk from 1 wk before irradiation (20 Gy); for BAL cell counts vs RILI controls / BAL protein levels vs RILI controls: 3 times/wk from 1 wk before irradiation (20 Gy) up to 6 wks; for BAL cell counts vs RILI controls / BAL protein levels vs RILI controls / body weight loss after irradiation: simvastatin 10 mg/kg; for body weight loss after irradiation: analogs 0.1 mg/kg i.p., 3 times/wk from 1 wk before irradiation up to 6 wks
Experimental: Eight to 10-week-old C57BL/6J mice (Jackson Labs, Bar Harbor, Me.) were used for all studies in accordance with the University of Chicago Institutional Animal Care & Use Committee guidelines.
At the termination of each experiment, animals were euthanized by exsanguination under anesthesia in accordance with institutional guidelines. Both lungs were lavaged with 1.0 mL of Hank's buffered saline solution with the fluid allowed to equilibrate for 10 s before withdrawing. The pulmonary vasculature was perfused clear via the pulmonary artery with sterile phosphate-buffered saline (PBS). Both lungs were excised, weighed, and snap-frozen in liquid nitrogen for subsequent analysis. The BAL fluid collected was centrifuged at 500×g for 20 min at 4° C., and the supernatant was removed and recentrifuged at 12,000×g before snap-freezing. Cell pellets were resuspended in 0.5 mL of red blood cell lysis buffer (ACK Lysing Buffer; BioSource International, Camarillo, Calif.) for 20 min and then repelleted by centrifugation at 2500 rpm for 20 min at 4° C. The supernatant was decanted, and the cell pellet was resuspended in 0.2 mL of PBS for cellular analysis using a standard hemacytometer technique. A total of 300 BAL cells per slide were counted for cell differentials using a Diff-Quick-stained kit (Baxter Diagnostics, McGaw Park, Ill.). BAL protein concentrations were determined by a colorimetric BCA assay. Albumin concentrations in the BAL at 1:1000 and 1:100 dilutions, respectively, were quantitated by ELISA (Bethyl Labs, Montgomery, Tex.). To measure cytokines and chemokines, the BAL fluid was assayed with a Bioplex mouse cytokine kit (Bio-Rad, Hercules, Calif.) in accordance with the manufacturer's instructions.
All other chemicals were analytical or cell-culture grade and were obtained from various commercial sources. Evans Blue dye conjugated to albumin (EBA) was prepared by dissolving EBD to a concentration of 0.5% (5 mg/mL or 5.2 mM) in phosphate-buffered saline (PBS) (Ca^2+-Mg^2+ free; Invitrogen Corporation, Carlsbad, Calif.). To this solution, BSA was added to a final concentration of 4% (40 mg/mL or 0.6 mM), mixed well by stirring with a magnetic bar, allowed to stand for 30 min, and then sterile-filtered through a 0.22-μm syringe filter. The conjugate was stored in small aliquots at −80° C. To prevent cross-contamination, each aliquot was used only once in one animal and then discarded. 4, 6, 8, or 12 weeks after irradiation, the animals were injected with EBA via the jugular vein. At the end of exposure, the pulmonary circulation was flushed and lungs were harvested. Formamide extracts of lungs were prepared, with the initial modification that the homogenates were centrifuged at 12,000×g. Centrifugation at this relative centrifugal force (RCF) produced a compact pellet that allowed accurate measurement of the recovered volumes. Accurate estimation of such volumes is critical for calculating the final tissue dilution factor. Lungs, kidneys, and hearts from mice that were not injected with EBA were similarly extracted, to calculate the tissue-specific correction factors. […] Linear regression equations between absorbance at 740 nm (X) and 620 nm (Y) in tissue extracts of animals untreated with EBA were considered to be the tissue-specific correction factors. […] The EB concentration read in mg/mL was converted to μg/g wet weight of lungs using the dilution factor of the original homogenate as described above.
Eight to 10-week-old C57BL/6J mice (Jackson Labs, Bar Harbor, Me.) were used for all studies in accordance with the University of Chicago Institutional Animal Care & Use Committee guidelines. […] (FIG. 4A). Bronchoalveolar lavage (BAL) was performed as described above. BAL protein concentrations were determined by a colorimetric BCA assay. Albumin concentrations in the BAL at 1:1000 and 1:100 dilutions, respectively, were quantitated by ELISA (Bethyl Labs, Montgomery, Tex.).

HPAEC [4] = assay: Transendothelial electrical resistance (TER) of HPAEC; type: cell-based, human; details: for maximal TER change: 10 μM
Experimental: Cells were grown at 37° C. in a 5% CO2 incubator, and passages 6 to 9 were used for experiments. Media were changed 1 day before experimentation.

HPAEC [5] = assay: Pharmacologic inhibitor effects on barrier enhancement (TER); details: 1 μM agonist, 60 min; for % Inhibition of Maximal TER Response (of Agonist-Only Control), PTX: 2-h preincubation 100 ng/ml PTX; for % Inhibition of Maximal TER Response (of Agonist-Only Control), MβCD: 2-h preincubation 2 mM MβCD; for % Inhibition of Maximal TER Response (of Agonist-Only Control), Gen: 30-min preincubation 200 μM genistein
Experimental: Endothelial cells were grown to confluence in polycarbonate wells containing evaporated gold microelectrodes (surface area, 10^−3 cm^2) in series with a large gold counter electrode (1 cm^2) connected to a phase-sensitive lock-in amplifier. Current was applied across the electrodes by a 4,000-Hz AC voltage source with amplitude of 1 V in series with a 1 MΩ resistance to approximate a constant current source (˜1 μA). The in-phase and out-of-phase voltages between the electrodes were monitored in real time with the lock-in amplifier and subsequently converted to scalar measurements of transendothelial impedance, of which resistance was the primary focus. TER was monitored for 30 minutes to establish a baseline resistance (R0) which, for bovine pulmonary endothelium, was typically between 8 to 12×10^3Ω (wells with R0<7×10^3Ω were rejected). As cells adhere and spread out on the microelectrode, TER increases (maximal at confluence), whereas cell retraction, rounding, or loss of adhesion is reflected by a decrease in TER. These measurements provide a highly sensitive biophysical assay that indicates the state of cell shape and focal adhesion. Values from each microelectrode were pooled at discrete time points and plotted versus time as the mean±SE of the mean. TER values from each microelectrode were pooled as discrete time points and plotted versus time as the mean±S.E.M.
In this experiment, confluent HPAEC were plated on gold microelectrodes and then stimulated with 1 μM S1P, FTY720, 1R, 1S, 2R, or 2S after either a 2-h preincubation with 100 ng/ml PTX, 30-min preincubation with 200 μM genistein (Gen), or 2-h preincubation with 2 mM MβCD or their respective vehicle controls. Data were pooled from multiple TER experiments (4-10 independent experiments per condition) and expressed as percentage inhibition of maximal barrier enhancement at 60 min relative to agonist-only control.

S1P receptor 1 (S1PR1) [6] = target: T1, S1P receptor 1 (S1PR1) (Homo sapiens, UniProt P21453); assay: S1PR1 protein expression in HPAEC by Western blot; type: cell-based; parameters: Cells were collected and S1PR1 expression level was detected by Western blot; endogenous in cells; host or cells: HPAEC (human pulmonary artery endothelial cells); details: for S1PR1 expression level compared to control: 1 μM (SEW2871 10 μM), 4 h
T1 sequence (P21453 whole entry): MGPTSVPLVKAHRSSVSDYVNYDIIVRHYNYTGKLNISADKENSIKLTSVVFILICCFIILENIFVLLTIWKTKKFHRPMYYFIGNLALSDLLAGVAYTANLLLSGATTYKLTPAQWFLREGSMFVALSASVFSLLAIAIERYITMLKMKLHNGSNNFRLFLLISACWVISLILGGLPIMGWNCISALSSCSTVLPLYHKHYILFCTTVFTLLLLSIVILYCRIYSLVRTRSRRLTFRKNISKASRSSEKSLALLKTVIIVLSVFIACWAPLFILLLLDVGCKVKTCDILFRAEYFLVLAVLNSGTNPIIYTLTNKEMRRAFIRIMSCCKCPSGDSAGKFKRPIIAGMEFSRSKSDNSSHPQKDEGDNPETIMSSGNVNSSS
Excerpt: Cells were collected and S1PR1 expression level was detected by Western blot.

S1P receptor 1 (S1PR1) [7] = target: T1, S1P receptor 1 (S1PR1); assay: Ubiquitination of S1PR1 in HPAEC (immunoprecipitation, ubiquitin Ab); details: for ubiquitination of S1PR1 at 2 h: 1 μM (SEW2871 10 μM); for ubiquitination of S1PR1 at 1 h: 1 μM
Excerpt: S1PR1 was immunoprecipitated by S1PR1Ab, and ubiquitination of S1PR1 was detected by ubiquitin Ab.

Structure (SMILES) | capillary leak as total BAL protein, relative to PBS control ([1]; 18 h) | peripheral blood leukocyte and lymphocyte levels relative to PBS controls [1] | activation of β-arrestin (blue/green emission ratio) (β-arrestin) | animals alive by day 12 following bleomycin instillation ([2]; 0.1 mg/kg i.p. 3× a week) [%] | mice survived to 14 days [2] | lung histology: inflammatory cell infiltration and interstitial edema induced by radiation [3] | BAL cell counts vs RILI-challenged controls [3] | BAL protein vs RILI-challenged controls [3] | BAL cell counts vs RILI controls [3] | BAL protein levels vs RILI controls [3] | body weight loss after irradiation [3] | maximal TER change (HPAEC [4]; within 60 min) | % Inhibition of Maximal TER Response (of Agonist-Only Control), PTX (HPAEC [5]) | % Inhibition of Maximal TER Response (of Agonist-Only Control), MβCD (HPAEC [5]) | % Inhibition of Maximal TER Response (of Agonist-Only Control), Gen (HPAEC [5]) | S1PR1 expression level compared to control (S1P receptor 1 (S1PR1) [6]) [%] | ubiquitination of S1PR1 at 2 h (S1P receptor 1 (S1PR1) [7]) | ubiquitination of S1PR1 at 1 h (S1P receptor 1 (S1PR1) [7]) | also measured
CCCCCCCCc1ccc(CC[C@@](N)(CO)CCP(=O)(O)O)cc1 [1S, (S)-3-amino-3-(hydroxymethyl)-5-(4-octylphenyl)pentylphosphonic acid] | significantly reduced capillary leak | does not further alter peripheral blood leukocyte and lymphocyte levels | only slightly activated | 83 | 5 out of 6 | markedly attenuated | significant decreases | significant decreases | significant decreases | significant decreases | did not lose weight | even greater maximal TER elevation | 92.8 (±2.6) % | 97.2 (±0.8) % | 51.9 (±21.0) % | 87.6 | does not induce ubiquitination | only slight ubiquitination | BAL WBC accumulation ([1]; i.p. 1 h after LPS, 18 h): significantly reduced; LPS-induced albumin leakage into BAL ([1]; i.p. 1 h after LPS, 18 h): significantly reduced; LPS-induced albumin leakage into lung tissue ([1]; i.p. 1 h after LPS, 18 h): significantly reduced; lung tissue MPO activity ([1]; i.p. 1 h after LPS, 18 h): significantly reduced; hematologic toxicity ([1]; mouse, in vivo): without apparent hematologic toxicity; comparison with 1R, 2R, 2S in the LPS model ([1]; preliminary studies, data not shown): superior to the other barrier-promoting analogs; BAL protein after 14 days, compared to FTY720 ([2]; 0.1 mg/kg i.p. 3× a week): Decreased BAL protein; maximal percentage TER change compared with S1P and FTY720 (HPAEC [4]; 1 μM, within 60 min): greater maximal percentage TER change; S1PR1 expression, agonist without MG132 (S1P receptor 1 (S1PR1) [6]; 1 μM, 4 h (FIG. 18)): 89.5%; S1PR1 expression, agonist after MG132 pretreatment (S1P receptor 1 (S1PR1) [6]; MG132 10 μM 2 h, then 1 μM agonist 4 h): 99.2%
CCCCCCCCc1ccc(CCC(N)(CO)CO)cc1 [FTY720, 2-amino-2-[2-(4-octylphenyl)ethyl]propane-1,3-diol] | reduction in permeability by 1S was comparable to that achieved by S1P or FTY720 | does not suppress circulating WBC levels | strongly activated | 17 | 1 out of the 6 | to a lesser extent | did not confer significant protection | did not confer significant protection | did not confer significant protection | did not confer significant protection | did not show any beneficial effect | somewhat barrier-disruptive | 84.0 (±9.1) % | 88.1 (±5.6) % | 86.2 (±10.7) % | 35.0 | significant ubiquitination | only slight ubiquitination | TER response (tracing) (HPAEC [4]; 1 μM): delayed onset of barrier enhancement
